Experimental findings from EP1080728A1, “PROSTAGLANDIN EP4 RECEPTOR AGONIST AND TREATMENT METHOD” (TORAY INDUSTRIES, INC., priority 1999, dated 2000) are described below.

Test [1] has as its system human normal lung fibroblast cells. As to the kind of experiment: Effects on collagen production in human normal lung fibroblast cells (TGF-β1 stimulated, Siricol Collagen Assay Kit). To be noted: compound 1 µM with TGF-β1 5 ng/ml, incubated for 24 hours; salt-soluble collagen; Reference (without compound): 1.1 µg/100,000 cells. In kind it is cell-based. The protocol:
The suppression action of the compound represented by the formula (II) on the collagen production from the fibroblast cells was confirmed by the following test method. After the human normal lung fibroblast cells were cultured for 48 hours under the condition of confluence (Eagle MEM culture medium with 0.45% FBS), the cells were added(1 µM) the compound represented by the formula (II) and transforming growth factor β1 (TGF-β1) at a concentration of 5 ng/ml, then incubated for 24 hours. The supernatant from the cell culture medium was concentrated by freeze-drying, and the amount of collagen (salt-soluble collagen) was […] assayed using Siricol Collagen Assay Kit (made by Biocolor Co.). The amounts of collagen in the supernatant were as follows: Reference: 1.1 µg/100,000 cells Compound (II): 0.5 µg/100,000 cells It was confirmed that production of collagen by TGF-β1 was suppressed by the compound according to the present invention.

In test [2] the target is T1, human EP4 receptor subtype (Homo sapiens, UniProt P35408).
T1 construct: expressed in transfected cells; host or cells: COS-7 cells (transient expression), membrane fraction
T1 sequence (P35408 whole entry): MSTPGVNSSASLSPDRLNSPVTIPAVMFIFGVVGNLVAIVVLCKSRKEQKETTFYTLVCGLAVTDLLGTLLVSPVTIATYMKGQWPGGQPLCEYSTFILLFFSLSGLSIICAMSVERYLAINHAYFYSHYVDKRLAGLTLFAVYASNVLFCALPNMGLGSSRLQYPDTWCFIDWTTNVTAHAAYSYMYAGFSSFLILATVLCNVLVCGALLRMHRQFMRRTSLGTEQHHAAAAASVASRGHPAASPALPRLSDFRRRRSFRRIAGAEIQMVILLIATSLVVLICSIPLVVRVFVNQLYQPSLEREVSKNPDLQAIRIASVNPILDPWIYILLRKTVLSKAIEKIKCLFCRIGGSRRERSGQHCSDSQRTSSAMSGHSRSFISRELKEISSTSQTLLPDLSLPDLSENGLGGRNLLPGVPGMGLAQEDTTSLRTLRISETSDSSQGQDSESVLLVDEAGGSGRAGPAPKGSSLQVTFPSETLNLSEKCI
Kind of test: Receptor binding study using PGE2 receptor subtype expression cells (3H-PGE2 displacement, membrane fraction). To be noted: human EP4 receptor transiently expressed in COS-7 cells, membrane fraction 10 µg/tube, 3H-PGE2 5 nM, 30°C for 1 hour; Ki = IC50/(1+[C]/Kd); read-out: DISSOCIATION CONSTANT Ki (nM) EP4. The protocol: The compound represented by the following formula (II) among the compounds represented by the general formula (I) strongly binds to the EP4 receptor as a subtype of the PGE2 receptor. The binding activity was confirmed in comparison with PGE2 by an experiment using the PGE2 receptor subtype expression cells. [drawing 2]
The experiment was carried out according to the previous report [Breyer, R. M. et al., J. Biol. Chem. 269, 6163-6169 (1994)], wherein the human EP4 receptor subtype was transiently expressed using COS-7 cells. These cells were prepared as membrane samples. The membrane fraction prepared (10 µg/tube) was incubated with reaction solution containing ^3H-PGE2 at 30°C for 1 hour. The reaction was terminated with ice-cold buffer [10mM MES (pH6.0), 10mM MgCl2, 1mM EDTA], and the bound ^3H-PGE2 was trapped on a glass filter (GF/C) by vacuum filtration under a reduced pressure, followed by counting the radioactivity with a liquid scintillator.
The Kd value and Bmax were determined from a Scatchard plot according to the conventional method. The non-specific binding was determined by the amount of binding in the presence of an excess amount (5 µM) on the non-labeled PGE2. Inhibitory action of the ^3H-PGE2 binding by the compound to be tested was determined at a concentration of ^3H-PGE2 of 5 nM by adding various concentrations of the compound to be tested. […]

In general, Ki refers to the equilibrium dissociation constant of an inhibitor or competing ligand from its target. Take `O=C(O)CCc1cccc2c1O[C@H]1C[C@@H](O)[C@H](/C=C/[C@@H](O)CC3CCCCC3)[C@@H]21` [COMPOUND (II)]: the “amounts of collagen in the supernatant” value in test [1] is 0.5 µg/100,000 cells. Further, in test [2], the Ki worked out at 19 nM.
